Reference: patent US20130150375A1, “GEPIRONE-ER TREATMENT OF MAJOR DEPRESSION IN PATIENTS TAKING NON-STEROIDAL ANTI-INFLAMMATORY DRUGS (NSAIDs)” (Fabre-Kramer Pharmaceuticals.Inc., priority 2011, published 2013)

How the values were obtained:
[1] = system: presynaptic α-2-adrenoceptor; conditions: cited from earlier work
[2] = in vivo; cited from earlier work
[3] = system: 5-HT receptors; conditions: cited from earlier work
[4] = system: post-synaptic receptors in the hippocampus; conditions: cited from earlier work
[5] = system: depressed subjects; experiment: Antidepressant efficacy with and without concomitant NSAIDs in depressed subjects (HAMD-17); type: in vivo, human; conditions: for HAMD-17 CFB (change from baseline) / Remitters (HAMD-17 score of 7 or less after treatment) / Responders (50% improvement in HAMD-17): end of treatment
Source text: To control for a placebo effect, 1045 depressed patients taking placebo were studied. Finally, 1041 depressed subjects taking gepirone-ER were studied. In contrast to the STAR-D study, three measures of efficacy were employed: remitters (HAMD-17 score 7 or less at end of treatment), responders (HAMD-17 50% reduction from baseline score at end of treatment) and HAMD-17 total score (change from baseline at end of treatment). Further, to test a possible dose of NSAID effect, two dose levels were tested: subjects taking any NSAID any time and subjects taking daily aspirin and other NSAIDs.

[6] = system: depressed patients taking an NSAID; experiment: Individual patient cases from the study (Examples 1 and 2), HAMD-17; type: in vivo, human; conditions: Example 2: person taking ibuprofen
Source text: The following Examples represent a sampling of the subjects studied:
A person came to a psychiatric clinic complaining of depression. Their symptoms included: depressed mood, insomnia, lack of energy, low sex drive, and mild suicidal thoughts. They also were being treated for cardiac complains and was taking a daily NSAID (aspirin) to improve blood flow. They refused to discontinue their aspirin because their cardiologist had prohibited them from doing so. Their initial HAMD-17 was 26. After 8 weeks of treatment with Gepirone-ER all of their depressive symptoms had been eliminated.
A person came into the same psychiatric clinic complaining of depression. Their symptoms included depressed mood, lethargy, guilt, and trouble waking up early in the morning. They were also being treated by their neurologist for chronic headaches with ibuprofen. They refused to discontinue the ibuprofen because the headaches interfered with their ability to work. Their initial HAMD-17 was 16. […] A further trial of a second SSRI (citalopram) also failed.

[7] = High NSAID (daily aspirin and other NSAIDs)
[8] = High NSAID (daily aspirin and other NSAIDs), listed as fluoxetine
[9] = no NSAID (None), comparison to Any NSAID
[10] = no NSAID (None), comparison to High NSAID
[11] = subjects taking any NSAID any time

c1cnc(N2CCNCC2)nc1 [1-PP, 1-(2-pyrimidinyl)piperazine]
Action at presynaptic α-2-adrenoceptor [1]: antagonist
Antidepressant-like characteristics in pre-clinical tests [2]: did not exhibit antidepressant-like characteristics

CC1(C)CC(=O)N(CCCCN2CCN(c3ncccn3)CC2)C(=O)C1O (stereo not drawn) [3′-OH gepirone]
Affinity for 5-HT receptors [3]: significant affinity
Agonism at post-synaptic receptors in the hippocampus [4]: full agonism

CNCCC(Oc1ccc(C(F)(F)F)cc1)c1ccccc1 (stereo not drawn) [Fluoxetine]
HAMD-17 CFB (change from baseline) [5, 7]: −9.03
Remitters (HAMD-17 score of 7 or less after treatment) [5, 7]: 27%
Responders (50% improvement in HAMD-17) [5, 7]: 45%
HAMD-17 CFB (change from baseline) [5, 8]: −9.04
Responders (50% improvement in HAMD-17) [5, 8]: 45%
Effect of NSAIDs on antidepressant efficacy ([5]; either NSAID dose level, three efficacy measures): NSAIDs interfere with the antidepressant activity
HAMD-17 CFB (change from baseline) [5, 9]: −10.5
Remitters (HAMD-17 score of 7 or less after treatment) [5, 9]: 28.3%
Responders (50% improvement in HAMD-17) [5, 9]: 51%
Remitters (HAMD-17 score of 7 or less after treatment) [5, 10]: 32%
Responders (50% improvement in HAMD-17) [5, 10]: 55%
Responders (50% improvement in HAMD-17) ([5]; no NSAID (None), comparison to High NSAID, listed as fluoxetine): 55%
HAMD-17 CFB (change from baseline) [5, 11]: −9.57
Remitters (HAMD-17 score of 7 or less after treatment) [5, 11]: 29%
Responders (50% improvement in HAMD-17) [5, 11]: 48%
Clinical outcome [6]: no improvement
HAMD-17 score after treatment ([6]; initial HAMD-17 16, after 8 weeks of treatment): 20
